Measured values reported in patent publication US5843941A, “Ras farnesyl transferase inhibitors” (Genentech, Inc., priority 1994, dated 1998).
Read-outs that look alike come from different tables or passages of the source.

Target: CAAX farnesyltransferase (Rattus norvegicus, UniProt Q02293+Q04631)
Assay: In vitro inhibition of CAAX farnesyltransferase
Type: biochemical
Design: purified to homogeneity from rat brain homogenates; from tissue; host or cells: rat brain; alternatively recombinant enzyme from a baculovirus expression system
Conditions: Table D
Procedure: All compounds were tested for in vitro inhibition of CAAX protein farnesyltransferase. […] Alternatively, recombinant CAAX protein farnesyltransferase was also used in this assay. […] Seventy-two hrs after infection, the cells were harvested and disrupted and the enzyme isolated by chromatography on Q-Sepharose.
After incubation for 30 min at 37° C., the amount of [3H]famesyl group transferred to p21H-ras was measured by precipitation with SDS/trichloroacetic acid, filtration onto nitrocellulose, and scintillation counting.
Structures of the compounds tested are reproduced below. Compound numbers also refer to example numbers above.

[1] = diastereomer A, read-out: EC50 (μM) "A"
[2] = diastereomer B, read-out: EC50 (μM) "B"

CAAX farnesyltransferase, sequence (Q02293 whole entry, one chain of several): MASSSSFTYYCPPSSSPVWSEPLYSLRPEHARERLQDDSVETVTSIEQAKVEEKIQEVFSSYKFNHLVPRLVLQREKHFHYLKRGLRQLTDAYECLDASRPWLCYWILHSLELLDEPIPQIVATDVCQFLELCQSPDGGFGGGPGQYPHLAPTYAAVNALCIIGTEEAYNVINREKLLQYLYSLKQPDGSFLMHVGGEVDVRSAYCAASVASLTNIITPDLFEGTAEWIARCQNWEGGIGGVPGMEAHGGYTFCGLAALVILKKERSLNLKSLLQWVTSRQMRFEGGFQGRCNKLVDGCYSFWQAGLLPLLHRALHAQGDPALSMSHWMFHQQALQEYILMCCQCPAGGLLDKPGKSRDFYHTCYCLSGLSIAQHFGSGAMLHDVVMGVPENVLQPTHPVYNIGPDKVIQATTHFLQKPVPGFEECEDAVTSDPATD

Row | SMILES | EC50 (EC50 (μM) "A", diastereomer A) [µM] | EC50 (EC50 (μM) "B", diastereomer B) [µM] | EC50 [1] [µM] | EC50 [2] [µM]
1 | CSCC[C@H](NC(=O)CN1C(=O)C(N(C)C(=O)[C@@H](N)CS)N=C(c2ccccc2)c2ccccc21)c1nnn[nH]1 (stereo partly drawn) [compound 47, N-[[3-[(2-amino-3-mercapto-1-oxopropyl)methylamino]-2,3-dihydro-2-oxo-5-phenyl-1H-1,4-benzodiazepin-1-yl]acetyl]-L-methionine tetrazole] | 0.044 | 0.0046 |  | 
2 | CN(C(=O)C(N)CS)C1N=C(c2ccccc2)c2ccccc2N(Cc2cccc(C(=O)O)c2)C1=O (stereo not shown) [compound 95, N-[[3-[(2-amino-3-mercapto-1-oxopropyl)methylamino]-2,3-dihydro-2-oxo-5-phenyl-1H-1,4-benzodiazepin-1-yl]methyl]-3-carboxybenzene] |  |  | 0.88 | 0.0066
3 | CN(C(=O)[C@@H](N)CS)C1N=C(c2ccccc2)c2ccccc2N(CC(=O)N[C@@H](Cc2ccc(-c3ccccc3)cc2)C(=O)O)C1=O (stereo partly drawn) [compound 61, N-[[3-[(2-amino-3-mercapto-1-oxopropyl)methylamino]-2,3-dihydro-2-oxo-5-phenyl-1H-1,4-benzodiazepin-1-yl]acetyl]-(β-biphenyl)-L-alanine] |  |  | 1.7 | 0.0035
4 | COC(=O)c1cccc(CN2C(=O)C(N(C)C(=O)C(N)CS)N=C(c3ccccc3)c3ccccc32)c1 (stereo not shown) [compound 94, N-[[3-[(2-amino-3-mercapto-1-oxopropyl)methylamino]-2,3-dihydro-2-oxo-5-phenyl-1H-1,4-benzodiazepin-1-yl]methyl]-3-carboxymethylbenzene] |  |  | 0.82 | 0.0042
5 | CN(C(=O)[C@@H](N)CS)C1N=C(c2ccccc2)c2ccccc2N(CC(=O)N[C@H](C(=O)O)C2CCCCC2)C1=O (stereo partly drawn) [compound 58, N-[[3-[(2-amino-3-mercapto-1-oxopropyl)methylamino]-2,3-dihydro-2-oxo-5-phenyl-1H-1,4-benzodiazepin-1-yl]acetyl]-(α-cyclohexyl)-glycine] |  |  | 1.1 | 0.0006
6 | CN(C(=O)[C@@H](N)CS)C1N=C(c2ccccc2)c2ccccc2N(CC(=O)N2CCC[C@H]2C(=O)O)C1=O (stereo partly drawn) [compound 36, N-[[3-[(2-amino-3-mercapto-1-oxopropyl)methylamino]-2,3-dihydro-2-oxo-5-phenyl-1H-1,4-benzodiazepin-1-yl]acetyl]-L-proline] |  |  | > 10 | 0.048
7 | CSCC[C@H](NC(=O)CN1C(=O)C(N(C)C(=O)[C@@H](N)CO)N=C(c2ccccc2)c2ccccc21)C(=O)O (stereo partly drawn) [compound 45, N-[[3-[(2-amino-3-hydroxy-1-oxopropyl)methylamino]-2,3-dihydro-2-oxo-5-phenyl-1H-1,4-benzodiazepin-1-yl]acetyl]-L-methionine] |  |  | > 10 | > 10
8 | CN(C(=O)[C@@H](N)CS)C1N=C(c2ccccc2)c2ccccc2N(CC(=O)N[C@@H](Cc2ccc(F)cc2)C(=O)O)C1=O (stereo partly shown) [compound 60] |  |  | 0.94 | 0.0005
9 | CN(C(=O)[C@@H](N)CS)C1N=C(c2ccccc2)c2ccccc2N(CC(=O)N(CC(=O)O)Cc2ccccc2)C1=O (stereo partly shown) [compound 66] |  |  | 2.4 | 0.0006
10 | CN(C(=O)[C@@H](N)CS)C1N=C(c2ccccc2)c2cc(Cl)ccc2N(Cc2ccccc2Cl)C1=O (stereo partly shown) [compound 107, N-[[3-[(2-amino-3-mercapto-1-oxopropyl)methylamino]-2,3-dihydro-2-oxo-5-phenyl-7-chloro-1H-1,4-benzodiazepin-1-yl]methyl]-2-chlorobenzene] |  |  | 0.006 | 0.006
11 | CC(C)[C@H](NC(=O)CN1C(=O)C(N(C)C(=O)[C@@H](N)CS)N=C(c2ccccc2)c2ccccc21)C(=O)O (stereo partly drawn) [compound 50, N-[[3-[(2-amino-3-mercapto-1-oxopropyl)methylamino]-2,3-dihydro-2-oxo-5-phenyl-1H-1,4benzodiazepin-1-yl]acetyl]-L-valine] |  |  | > 3 | 0.0008
12 | CSCC[C@H](NC(=O)CN1C(=O)C(N(C)C(=O)[C@@H](N)CS)N=C(c2ccccc2)c2ccccc21)C(N)=O (stereo partly drawn) [compound 33, N-[[3-[(2-amino-3-mercapto-1-oxopropyl)methylamino]-2,3-dihydro-2-oxo-5phenyl-1H-1,4-benzodiazepin-1-yl]acetyl]-L-methionine amide] |  |  | 2.2 | 0.019
13 | CN(C(=O)[C@@H](N)CS)C1N=C(c2ccccc2)c2cc(Cl)ccc2N(CC(=O)N[C@@H](Cc2ccc(F)cc2)C(=O)O)C1=O (stereo partly drawn) [compound 70, N-[[3-[(2-amino-3-mercapto-1-oxopropyl)methylamino]-2,3-dihydro-2-oxo-5-phenyl-7-chloro-1H-1,4-benzodiazepin-1-yl]acetyl]-L-4-fluoro-phenylalanine] |  |  | 0.13 | 0.0008
14 | CN(C(=O)[C@@H](N)CS)C1N=C(c2ccccc2)c2cc(Cl)ccc2N(CC(=O)N[C@H](C(N)=O)C2CCCCC2)C1=O (stereo partly drawn) [compound 72, N-[[3-[(2-amino-3-mercapto-1-oxopropyl)methylamino]-2,3-dihydro-2-oxo-5-phenyl-7-chloro-1H-1,4-benzodiazepin-1-yl]acetyl]-L-(α-cyclohexyl)-glycine amide] |  |  | 0.6 | 0.0017
15 | Cc1ccc(CN2C(=O)C(N(C)C(=O)[C@@H](N)CS)N=C(c3ccccc3)c3cc(Cl)ccc32)cc1 (stereo partly shown) [compound 104, N-[[3-[(2-amino-3-mercapto-1-oxopropyl)methylamino]-2,3-dihydro-2-oxo-5-phenyl-7-chloro-1H-1,4-benzodiazepin-1-yl]methyl]-4-methylbenzene] |  |  | 0.0048 | 0.0048
16 | C[C@H](NC(=O)CN1C(=O)C(N(C)C(=O)[C@@H](N)CS)N=C(c2ccccc2)c2ccccc21)C(=O)O (stereo partly drawn) [compound 35, N-[[3-[(2-amino-3-mercapto-1-oxopropyl)methylamino]-2,3dihydro-2-oxo-5-phenyl-1H-1,4-benzodiazepin-1-yl]acetyl]-L-alanine] |  |  | > 10 | 0.022
17 | CN(C(=O)[C@@H](N)CS)C1N=C(c2ccccc2)c2ccccc2N(CC(=O)N[C@@H](CCC(N)=O)C(=O)O)C1=O (stereo partly drawn) [compound 52, N-[[3-[(2-amino-3-mercapto-1-oxopropyl)methylamino]-2,3-dihydro-2-oxo-5-phenyl-1H-1,4-benzodiazepin-1-yl]acetyl]-L-glutamine] |  |  | > 3 | 0.0018
18 | CN(C(=O)[C@@H](N)CS)C1N=C(c2ccccc2)c2cc(Cl)ccc2N(CC(=O)N[C@@H](Cc2ccccc2)C(N)=O)C1=O (stereo partly drawn) [compound 69, N-[[3-[(2-amino-3-mercapto-1-oxopropyl)methylamino]-2,3-dihydro-2-oxo-5phenyl-7-chloro-1H-1,4-benzodiazepin-1-yl]acetyl]-L-phenylalanine amide] |  |  | 1.5 | 0.0036
19 | CN(C(=O)[C@@H](N)CS)C1N=C(c2ccccc2)c2ccccc2N(CC(=O)N[C@@H](CCc2ccccc2)C(=O)O)C1=O (stereo partly drawn) [compound 59, N-[[3-[-(2-amino-3-mercapto-1-oxopropyl)methylamino]-2,3-dihydro-2-oxo-5-phenyl-1H-1,4-benzodiazepin-1-yl]acetyl]-L-homo-phenylalanine] |  |  | 1.1 | 0.0012
20 | COC(=O)c1cccc(CN2C(=O)C(N(C)C(=O)[C@@H](N)CS)N=C(c3ccccc3)c3cc(Cl)ccc32)c1 (stereo partly shown) [compound 97, N-[[3-[(2-amino-3-mercapto-1-oxopropyl)methylamino]-2,3-dihydro-2-oxo-5-phenyl-7-chloro-1H-1,4-benzodiazepin-1-yl]methyl]-3-carboxymethylbenzene] |  |  |  | 0.0003
21 | CN(C(=O)[C@@H](N)CS)C1N=C(c2ccccc2)c2cc(Cl)ccc2N(Cc2cccc(C(F)(F)F)c2)C1=O (stereo partly shown) [compound 103, N-[[3-[(2-amino-3-mercapto-1-oxopropyl)methylamino]-2,3-dihydro-2-oxo-5-phenyl-7-chloro-1H-1,4-benzodiazepin-1-yl]methyl]-3-trifluoromethylbenzene] |  |  | 0.0074 | 0.0074
22 | C[C@@H](O)[C@H](NC(=O)CN1C(=O)C(N(C)C(=O)[C@@H](N)CS)N=C(c2ccccc2)c2ccccc21)C(=O)O (stereo partly drawn) [compound 51, N-[[3-[(2-amino-3-mercapto-1-oxopropyl)methylamino]-2,3-dihydro-2-oxo-5-phenyl-1H-1,4-benzodiazepin-1-yl]acetyl]-L-threonine] |  |  | > 3 | 0.0017
23 | CN(C(=O)[C@@H](N)CS)C1N=C(c2ccccc2)c2cc(Cl)ccc2N(CC(=O)N[C@H](C(=O)O)C2CCCCC2)C1=O (stereo partly drawn) [compound 71, N-[[3-[(2-amino-3-mercapto-1-oxopropyl)methylamino]-2,3-dihydro-2-oxo-5-phenyl-7-chloro-1H-1,4-benzodiazepin-1-yl]acetyl]-L-(α-cyclohexyl)-glycine] |  |  | 0.1 | 0.0007
24 | Cc1cccc(CN2C(=O)C(N(C)C(=O)[C@@H](N)CS)N=C(c3ccccc3)c3cc(Cl)ccc32)c1 (stereo partly shown) [compound 102, N-[[3-[(2-amino-3-mercapto-1-oxopropyl)methylamino]-2,3-dihydro-2-oxo-5-phenyl-7-chloro-1H-1,4-benzodiazepin-1-yl]methyl]-3-methylbenzene] |  |  | 0.11 | 0.038
25 | CSCC[C@](C)(NC(=O)CN1C(=O)C(N(C)C(=O)[C@@H](N)CS)N=C(c2ccccc2)c2ccccc21)C(=O)O (stereo partly drawn) [compound 49, N-[[3-[(2-amino-3-mercapto-1-oxopropyl)methylamino]-2,3-dihydro-2-oxo-5-phenyl-1H-1,4-benzodiazepin-1-yl]acetyl]-(α-methyl)-methionine] |  |  | 0.74 | 0.006
